Data: article PMC11859905, “Flavonoids as Potential Modulators of Pancreatic Lipase Catalytic Activity” (Pharmaceutics, 2025)
Read-outs that look alike come from different tables or passages of the source. Each block holds one compound with its values, some of them ahead of it.

Experiments:
human pancreatic lipase = molecular target: T1, human pancreatic lipase (Homo sapiens, UniProt P16233); assay: In vitro assay using human pancreatic lipase (4-MUO hydrolysis, fluorometric); assay type: biochemical; conditions: for IC50: human PL 2 U/mL, 4-MUO 0.05 mM, mean ± SEM; for inhibitory activity against HPL (in words): at the maximum concentration that could be tested;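 on all read-outs here: Read-out is the initial rate of fluorescent 4-MU release as HPL cleaves the 4-MUO substrate, a rate that scales with the amount of enzyme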
T1 construct: PL from the human pancreas (triacylglycerol acyl hydrolase, EC 3.1.1.3); from tissue; host or cells: human pancreas
T1 sequence (P16233 17-465): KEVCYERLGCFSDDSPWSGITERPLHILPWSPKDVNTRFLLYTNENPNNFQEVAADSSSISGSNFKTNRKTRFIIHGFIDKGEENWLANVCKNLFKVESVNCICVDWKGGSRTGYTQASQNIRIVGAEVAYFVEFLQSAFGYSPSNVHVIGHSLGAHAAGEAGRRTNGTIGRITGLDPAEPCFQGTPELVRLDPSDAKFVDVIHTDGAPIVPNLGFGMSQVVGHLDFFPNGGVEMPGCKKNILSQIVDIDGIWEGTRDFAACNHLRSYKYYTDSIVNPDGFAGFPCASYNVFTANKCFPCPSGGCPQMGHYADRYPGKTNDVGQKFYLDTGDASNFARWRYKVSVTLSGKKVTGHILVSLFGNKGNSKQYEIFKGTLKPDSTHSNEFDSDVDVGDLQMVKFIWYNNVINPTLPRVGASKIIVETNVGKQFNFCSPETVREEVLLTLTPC

[1] = molecular target: T2, porcine pancreatic lipase (Sus scrofa, UniProt P00591); assay: In vitro assay using porcine pancreatic lipase (4-MUO hydrolysis, fluorometric); conditions: for inhibitory activity against PPL (in words): at the maximum concentration that could be tested;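 on all read-outs here: product 4-methylumbeliferone formation tracked fluorometrically, catalytic rate from RFU slope over the 10–30 min window, compounds checked beforehand for own fluorescence, at least three independent experiments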
T2 sequence (P00591 1-450): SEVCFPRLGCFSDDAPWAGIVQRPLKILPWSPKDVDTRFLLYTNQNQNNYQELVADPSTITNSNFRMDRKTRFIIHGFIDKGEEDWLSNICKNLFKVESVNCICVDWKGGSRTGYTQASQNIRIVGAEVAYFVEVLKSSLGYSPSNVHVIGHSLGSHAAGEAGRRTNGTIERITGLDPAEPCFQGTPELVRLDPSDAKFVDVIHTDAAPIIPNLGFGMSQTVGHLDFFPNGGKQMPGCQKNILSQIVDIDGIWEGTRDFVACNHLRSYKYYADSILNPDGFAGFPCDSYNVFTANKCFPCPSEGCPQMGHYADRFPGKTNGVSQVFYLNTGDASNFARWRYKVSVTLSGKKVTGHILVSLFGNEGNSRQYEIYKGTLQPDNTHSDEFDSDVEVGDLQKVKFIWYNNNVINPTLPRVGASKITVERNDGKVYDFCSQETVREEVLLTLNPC

[2] = molecular target: T2, porcine pancreatic lipase; assay: Inhibition kinetics of porcine pancreatic lipase (nonlinear regression, Solver); assay type: biochemical; design: compare it to the effects of the porcine pancreas (type II, EC 3.1.1.3); from tissue; host or cells: porcine pancreas (type II preparation); conditions: porcine pancreatic lipase
[3] = at 50 μM, read-out: PL Inhibition (%) ± SEM, Human
[4] = read-out: PL Inhibition (%) ± SEM, Porcine
[5] = read-out: PL Inhibition (%) ± SEM, Human
[6] = read-out: PL Inhibition (%) ± SEM, Human, at 50 μM

SMILES: O=c1cc(-c2ccc(O)c(O)c2)oc2c(O)c(O)ccc12 [Flavonoid 43]
inhibition at 50 µM (human pancreatic lipase; [3]): < 30% | inhibition at 50 µM [1, 4]: < 30%

SMILES: CCCCCCc1c(-c2ccc(O)c(O)c2)oc2cc(O)cc(O)c2c1=O [Flavonoid 29]
IC50 (human pancreatic lipase): 16.4 ± 0.7 µM | IC50 [1]: 10.1 ± 0.4 µM

SMILES: O=c1c(O)c(-c2ccc(O[C@@H]3O[C@H](CO)[C@@H](O)[C@H](O)[C@H]3O)c(O)c2)oc2cc(O)cc(O)c12 [Flavonoid 34, Spiraeoside]
inhibition at 50 µM (human pancreatic lipase; [3]): < 30% | inhibitory activity against HPL (in words) (human pancreatic lipase): did not show significant inhibitory activity | inhibitory activity against PPL (in words) [1]: did not show significant inhibitory activity | inhibition at 50 µM [1, 4]: < 30%

SMILES: O=c1c(-c2ccc(O)cc2)coc2cc(O)cc(O)c12 [Flavonoid 17, Genistein]
inhibition at 100 µM (human pancreatic lipase; [5]): < 30% | inhibitory activity against HPL (in words) (human pancreatic lipase): did not show significant inhibitory activity | inhibitory activity against PPL (in words) [1]: did not show significant inhibitory activity | inhibition at 100 µM [1, 4]: < 30%

SMILES: O=c1cc(-c2ccccc2)oc2cc(O)ccc12 [Flavonoid 9]
inhibition at 50 µM (human pancreatic lipase; [6]): < 30% | inhibition at 50 µM [1, 4]: < 30%

SMILES: O=c1c(O)c(-c2ccc(O)cc2)oc2cc(OC3OC(CO)C(O)C(O)C3O)cc(O)c12 (stereo not shown) [Flavonoid 26, Populnin]
inhibition at 100 µM (human pancreatic lipase; [5]): < 30% | inhibitory activity against HPL (in words) (human pancreatic lipase): did not show significant inhibitory activity | inhibitory activity against PPL (in words) [1]: did not show significant inhibitory activity | inhibition at 100 µM [1, 4]: < 30%

SMILES: Oc1cc(O)c2c(c1)OC(c1cc(O)c(O)c(O)c1)C(O)C2 (single isomer, unassigned; (-)) [Flavonoid 40, (–)-Epigallocatechin]
inhibition at 100 µM (human pancreatic lipase; [5]): < 30% | inhibition at 100 µM [1, 4]: < 30%

SMILES: O=c1c(O)c(-c2ccc(O)c(O)c2)oc2c(O)c(O)cc(O)c12 [Flavonoid 47, Gossypetin]
inhibition at 50 µM (human pancreatic lipase; [6]): 37 ± 1% | inhibition at 50 µM [1, 4]: 36 ± 3%

SMILES: O=c1c(O)c(-c2ccc(O)c(O)c2)oc2cc(O)cc(O)c12 [Flavonoid 27, Quercetin]
inhibition at 75 µM (human pancreatic lipase; read-out: PL Inhibition (%) ± SEM, Human, at 75 μM): < 46% | Inhibition Model [2]: Competitive | Vmax ([2]; ± SEM, in µmol/min): 354 ± 3

SMILES: O=c1c(O)c(-c2ccc(O)cc2)oc2c(O)c(O)ccc12 [Flavonoid 44]
inhibition at 50 µM (human pancreatic lipase; [3]): < 30% | inhibition at 50 µM [1, 4]: 42 ± 2%

SMILES: O=c1cc(-c2ccc(O)cc2)oc2ccccc12 [Flavonoid 3]
inhibition at 25 µM (human pancreatic lipase; [5]): < 30% | inhibition at 25 µM [1, 4]: < 30%

SMILES: Oc1cc(O)c2c(c1)O[C@H](c1ccc(O)c(O)c1)[C@H](O)C2 [Flavonoid 39, (–)-Epicatechin]
inhibition at 100 µM (human pancreatic lipase; [5]): < 30% | inhibition at 100 µM [1, 4]: < 30%

SMILES: O=c1c(OC2OC(CO)C(O)C(O)C2O)c(-c2ccc(OC3OC(CO)C(O)C(O)C3O)c(O)c2)oc2cc(O)cc(O)c12 (stereo not shown) [Flavonoid 35]
inhibitory activity against HPL (in words) (human pancreatic lipase): did not show significant inhibitory activity | inhibition at 50 µM (human pancreatic lipase; [6]): < 30% | inhibitory activity against PPL (in words) [1]: did not show significant inhibitory activity | inhibition at 50 µM [1, 4]: < 30%

SMILES: O=c1cc(-c2cccc(O)c2)oc2ccccc12 [Flavonoid 2]
inhibition at 100 µM (human pancreatic lipase; [5]): < 30% | inhibition at 100 µM [1, 4]: < 30%

SMILES: O=c1c(O)c(-c2ccc(O)c(O)c2)oc2cc(O[C@@H]3O[C@H](CO)[C@@H](O)[C@H](O)[C@H]3O)cc(O)c12 [Flavonoid 33, Quercimeritrin]
inhibition at 50 µM (human pancreatic lipase; [3]): < 30% | inhibitory activity against HPL (in words) (human pancreatic lipase): did not show significant inhibitory activity | inhibitory activity against PPL (in words) [1]: did not show significant inhibitory activity | inhibition at 50 µM [1, 4]: < 30%

SMILES: O=c1cc(-c2ccc(O)c(O)c2)oc2cccc(O)c12 [Flavonoid 8]
inhibition at 50 µM (human pancreatic lipase; [5]): < 30% | inhibition at 50 µM [1, 4]: 46 ± 2%

Further lines, with some results ahead:

inhibition at 25 µM (human pancreatic lipase; [5]): < 30% | inhibition at 25 µM [1, 4]: < 30%
SMILES: O=c1c(O)c(-c2ccc(O)c(O)c2)oc2c(O)c(O)ccc12 [Flavonoid 45, Melanoxetin]

inhibition at 12.5 µM (human pancreatic lipase; at 12.5 μM, read-out: PL Inhibition (%) ± SEM, Human): < 30% | inhibition at 12.5 µM [1, 4]: < 30%
SMILES: O=c1c(O)c(-c2ccc(O)c(O)c2)oc2c(O[C@@H]3O[C@H](CO)[C@@H](O)[C@H](O)[C@H]3O)c(O)cc(O)c12 [Flavonoid 48, Gossypin]
inhibitory activity against HPL (in words) (human pancreatic lipase): did not show significant inhibitory activity | inhibitory activity against PPL (in words) [1]: did not show significant inhibitory activity

inhibition at 100 µM (human pancreatic lipase; [5]): < 30% | inhibition at 100 µM [1, 4]: < 30%
SMILES: O=c1cc(-c2cccc(O)c2)oc2cc(O)ccc12 [Flavonoid 10]

inhibition at 100 µM (human pancreatic lipase; [5]): < 30% | inhibition at 100 µM [1, 4]: < 30%
SMILES: O=c1cc(-c2ccccc2)oc2ccccc12 [Flavonoid 1, Flavone]

IC50 (human pancreatic lipase): 7 ± 1 µM | IC50 [1]: 20 ± 3 µM
SMILES: O=c1cc(-c2cc(O)c(O)c(O)c2)oc2cccc(O)c12 [Flavonoid 36]

inhibition at 100 µM (human pancreatic lipase; [5]): < 30% | inhibition at 100 µM [1, 4]: < 30%
SMILES: O=c1cc(-c2ccc(O)c(O)c2)oc2ccccc12 [Flavonoid 4]

inhibition at 100 µM (human pancreatic lipase; [5]): 39 ± 3% | IC50 ([1]; read-out: IC50 (μM) ± SEM, Porcine, porcine PL 0.04 mg/mL, 4-MUO 0.05 mM, mean ± SEM): 79 ± 6 µM
SMILES: O=c1c(O)c(-c2ccc(O)cc2)oc2cc(O)cc(O)c12 [Flavonoid 24, Kaempferol]

inhibition at 25 µM (human pancreatic lipase; [5]): < 30% | inhibition at 25 µM [1, 4]: < 30%
SMILES: O=c1cc(-c2ccc(O)cc2)oc2cccc(O)c12 [Flavonoid 7]

inhibition at 50 µM (human pancreatic lipase; [3]): 34 ± 1% | inhibition at 50 µM [1, 4]: < 30%
SMILES: C[C@@H]1O[C@@H](OC[C@H]2O[C@@H](Oc3c(-c4ccc(O)c(O)c4)oc4cc(O)cc(O)c4c3=O)[C@H](O)[C@@H](O)[C@@H]2O)[C@H](O)[C@H](O)[C@H]1O [Flavonoid 32, Rutin]
inhibitory activity against HPL (in words) (human pancreatic lipase): did not show significant inhibitory activity | inhibitory activity against PPL (in words) [1]: did not show significant inhibitory activity

inhibition at 50 µM (human pancreatic lipase; [3]): 44 ± 5% | inhibition at 50 µM [1, 4]: 41 ± 4%
SMILES: O=c1c(O)c(-c2ccc(O)c(O)c2)oc2ccccc12 [Flavonoid 18]
inhibitory activity against HPL (in words) (human pancreatic lipase): did not show significant inhibitory activity | inhibitory activity against PPL (in words) [1]: did not show significant inhibitory activity

inhibition at 50 µM (human pancreatic lipase; [3]): < 30% | inhibition at 50 µM [1, 4]: < 30%
SMILES: O=c1cc(-c2ccccc2)oc2cc(O)cc(O)c12 [Flavonoid 13, Chrysin]

inhibition at 50 µM (human pancreatic lipase; [3]): < 30% | inhibition at 50 µM [1, 4]: < 30%
SMILES: O=c1c(OC2OC(CO)C(O)C(O)C2O)c(-c2ccc(O)c(O)c2)oc2cc(O)cc(O)c12 (stereo not shown) [Flavonoid 31]
inhibitory activity against HPL (in words) (human pancreatic lipase): did not show significant inhibitory activity | inhibitory activity against PPL (in words) [1]: did not show significant inhibitory activity

IC50 (human pancreatic lipase): 54 ± 5 µM | IC50 [1]: 73 ± 7 µM
SMILES: O=c1cc(-c2cccc(O)c2)oc2cc(O)cc(O)c12 [Flavonoid 14]

inhibition at 50 µM (human pancreatic lipase; [3]): < 30% | inhibition at 50 µM [1, 4]: 41 ± 1%
SMILES: O=c1c(O)c(-c2ccccc2)oc2cc(O)cc(O)c12 [Flavonoid 23, Galangin]

inhibition at 25 µM (human pancreatic lipase; [5]): 32.3 ± 0.1% | inhibition at 25 µM [1, 4]: < 30%
SMILES: O=c1cc(-c2cccc(O)c2)oc2cccc(O)c12 [Flavonoid 6]

IC50 (human pancreatic lipase): 79 ± 3 µM | IC50 [1]: 98 ± 9 µM
SMILES: O=c1cc(-c2ccccc2)oc2c(O)c(O)cc(O)c12 [Flavonoid 42, Norwogonin]

IC50 (human pancreatic lipase): 75 ± 2 µM | IC50 [1]: 41 ± 1 µM
SMILES: O=c1cc(-c2ccc(O)cc2)oc2cc(O)cc(O)c12 [Flavonoid 15, Apigenin]

inhibition at 50 µM (human pancreatic lipase; [3]): 54 ± 2% | IC50 [1]: 32 ± 2 µM
SMILES: O=c1cc(-c2ccc(O)c(O)c2)oc2cc(O)cc(O)c12 [Flavonoid 16, Luteolin]

inhibition at 50 µM (human pancreatic lipase; [3]): < 30% | inhibition at 50 µM [1, 4]: < 30%
SMILES: O=c1cc(-c2ccccc2)oc2cccc(O)c12 [Flavonoid 5]

inhibition at 50 µM (human pancreatic lipase; [3]): 39 ± 3% | inhibition at 50 µM [1, 4]: 46 ± 4%
SMILES: O=c1c(O)c(-c2ccc(O)cc2)oc2c(O)c(O)cc(O)c12 [Flavonoid 46, Herbacetin]

IC50 (human pancreatic lipase): 42 ± 2 µM | IC50 [1]: 13 ± 1 µM
SMILES: CCCCc1c(-c2ccc(O)c(O)c2)oc2cc(O)cc(O)c2c1=O [Flavonoid 28]

inhibition at 50 µM (human pancreatic lipase; [3]): 34 ± 1% | inhibition at 50 µM [1, 4]: < 30%
SMILES: O=c1c(O[C@@H]2O[C@H](CO)[C@@H](O)[C@H](O)[C@H]2O)c(-c2ccc(O)cc2)oc2cc(O)cc(O)c12 [Flavonoid 25, Astragalin]
inhibitory activity against HPL (in words) (human pancreatic lipase): did not show significant inhibitory activity | inhibitory activity against PPL (in words) [1]: did not show significant inhibitory activity
